Data taken from the CheMixHub viscosity set.
± gives the uncertainty stated by the source.

Test: xn = mol fraction of the nth substance listed

ClC=C(Cl)Cl + O=C1CCCCC1
viscosity [mPa·s], 101.33 kPa
Settings | x1 = 0.1122 | x1 = 0.2059 | x1 = 0.3057 | x1 = 0.4263 | x1 = 0.4957 | x1 = 0.4987 | x1 = 0.6177 | x1 = 0.7064 | x1 = 0.7889 | x1 = 0.9152
298.15 K | 1.589 ± 0.02 | 1.365 ± 0.018 | 1.215 ± 0.016 | 1.069 ± 0.014 | – | 0.988 ± 0.013 | 0.883 ± 0.011 | 0.803 ± 0.01 | 0.739 ± 0.009 | 0.666 ± 0.009
308.15 K | 1.339 ± 0.017 | 1.174 ± 0.015 | 1.062 ± 0.014 | 0.944 ± 0.012 | 0.878 ± 0.011 | – | 0.789 ± 0.01 | 0.723 ± 0.009 | 0.68 ± 0.009 | 0.618 ± 0.008
318.15 K | 1.158 ± 0.015 | 1.034 ± 0.013 | 0.933 ± 0.012 | 0.835 ± 0.011 | 0.791 ± 0.01 | – | 0.719 ± 0.009 | 0.672 ± 0.009 | 0.633 ± 0.008 | 0.582 ± 0.007

O=C1CCCC1 + CNC=O
viscosity [mPa·s], 101 kPa
Settings | x2 = 0.0865 | x2 = 0.1756 | x2 = 0.2675 | x2 = 0.3623 | x2 = 0.4601 | x2 = 0.5611 | x2 = 0.6654 | x2 = 0.7732 | x2 = 0.8847
303.15 K | 1.041 ± 0.051 | 1.104 ± 0.054 | 1.165 ± 0.056 | 1.226 ± 0.059 | 1.293 ± 0.062 | 1.355 ± 0.065 | 1.412 ± 0.067 | 1.467 ± 0.069 | 1.532 ± 0.072
308.15 K | 0.9797 ± 0.049 | 1.035 ± 0.051 | 1.09 ± 0.053 | 1.144 ± 0.056 | 1.204 ± 0.058 | 1.258 ± 0.06 | 1.309 ± 0.063 | 1.358 ± 0.065 | 1.414 ± 0.067
313.15 K | 0.9075 ± 0.045 | 0.9589 ± 0.048 | 1.01 ± 0.05 | 1.059 ± 0.052 | 1.114 ± 0.054 | 1.164 ± 0.056 | 1.21 ± 0.058 | 1.255 ± 0.06 | 1.307 ± 0.063
318.15 K | 0.8512 ± 0.043 | 0.8981 ± 0.045 | 0.9442 ± 0.047 | 0.9895 ± 0.049 | 1.039 ± 0.051 | 1.085 ± 0.053 | 1.127 ± 0.055 | 1.167 ± 0.057 | 1.215 ± 0.059

ClC=C(Cl)Cl + CCCCO
viscosity [mPa·s], 101 kPa
Settings | x2 = 0.0983 | x2 = 0.2464 | x2 = 0.3954 | x2 = 0.5452 | x2 = 0.696 | x2 = 0.8476
303.15 K | 0.669 ± 0.0089 | 0.98 ± 0.013 | 1.24 ± 0.017 | 1.492 ± 0.02 | 1.747 ± 0.023 | 2 ± 0.027
313.15 K | 0.601 ± 0.008 | 0.814 ± 0.011 | 1.03 ± 0.014 | 1.218 ± 0.016 | 1.408 ± 0.019 | 1.599 ± 0.021
323.15 K | 0.52 ± 0.0069 | 0.698 ± 0.0093 | 0.835 ± 0.011 | 0.973 ± 0.013 | 1.111 ± 0.015 | 1.252 ± 0.017

ClC=C(Cl)Cl + CC(C)CCO
303.15 K, 101.3 kPa
Settings | viscosity [mPa·s]
x1 = 0.0921 | 2.553 ± 0.032
x1 = 0.2031 | 2.01 ± 0.025
x1 = 0.2728 | 1.705 ± 0.022
x1 = 0.4124 | 1.237 ± 0.016
x1 = 0.5054 | 1.027 ± 0.014
x1 = 0.6208 | 0.85 ± 0.012
x1 = 0.7016 | 0.758 ± 0.01
x1 = 0.814 | 0.666 ± 0.009
x1 = 0.9047 | 0.597 ± 0.009

NC1CCCCC1 + Cc1ccccc1
303.15 K, 101 kPa
Settings | viscosity [mPa·s]
x2 = 0.1242 | 1.381 ± 0.012
x2 = 0.2292 | 1.177 ± 0.0099
x2 = 0.3268 | 1.013 ± 0.0085
x2 = 0.4121 | 0.8791 ± 0.0075
x2 = 0.5347 | 0.7115 ± 0.0061
x2 = 0.6445 | 0.6079 ± 0.0053
x2 = 0.7365 | 0.5443 ± 0.0047
x2 = 0.8431 | 0.4838 ± 0.0043
x2 = 0.922 | 0.4617 ± 0.0041

Cc1ccccn1 + O
viscosity [mPa·s]
Settings | 298.15 K | 303.15 K | 313.15 K | 323.15 K
101 kPa, x1 = 0.02168 | 1.207 ± 0.02 | – | – | –
101 kPa, x1 = 0.05477 | 1.711 ± 0.028 | – | – | –
101 kPa, x1 = 0.1594 | 2.779 ± 0.045 | – | – | –
101 kPa, x1 = 0.2977 | 3.166 ± 0.051 | – | – | –
101 kPa, x1 = 0.6247 | 1.736 ± 0.028 | – | – | –
101.3 kPa, x1 = 0.1 | – | 1.916 ± 0.061 | 1.467 ± 0.047 | 1.168 ± 0.037
101.3 kPa, x1 = 0.2 | – | 2.506 ± 0.077 | 1.839 ± 0.056 | 1.42 ± 0.044
101.3 kPa, x1 = 0.3 | – | 2.594 ± 0.077 | 1.909 ± 0.057 | 1.465 ± 0.043
101.3 kPa, x1 = 0.3999 | – | 2.364 ± 0.068 | 1.757 ± 0.05 | 1.362 ± 0.039
101.3 kPa, x1 = 0.4997 | – | 1.982 ± 0.055 | 1.515 ± 0.042 | 1.201 ± 0.033
101.3 kPa, x1 = 0.5999 | – | 1.554 ± 0.042 | 1.237 ± 0.033 | 1.008 ± 0.027
101.3 kPa, x1 = 0.7 | – | 1.234 ± 0.032 | 1.016 ± 0.026 | 0.8611 ± 0.022
101.3 kPa, x1 = 0.8146 | – | 0.9988 ± 0.025 | 0.8497 ± 0.021 | 0.7336 ± 0.018
101.3 kPa, x1 = 0.8999 | – | 0.8499 ± 0.021 | 0.7339 ± 0.018 | 0.6501 ± 0.016

O=C1CCCC1 + Nc1cccc(Cl)c1
viscosity [mPa·s], 100 kPa
Settings | x2 = 0.0805 | x2 = 0.1814 | x2 = 0.2804 | x2 = 0.3815 | x2 = 0.4998 | x2 = 0.5995 | x2 = 0.6995 | x2 = 0.7875 | x2 = 0.9071
303.15 K | 1.111 ± 0.1 | 1.291 ± 0.1 | 1.493 ± 0.1 | 1.731 ± 0.1 | 2.058 ± 0.1 | 2.379 ± 0.1 | 2.752 ± 0.1 | 3.127 ± 0.1 | 3.719 ± 0.1
308.15 K | 1.047 ± 0.1 | 1.211 ± 0.1 | 1.395 ± 0.1 | 1.611 ± 0.1 | 1.903 ± 0.1 | 2.19 ± 0.1 | 2.521 ± 0.1 | 2.852 ± 0.1 | 3.373 ± 0.1
313.15 K | 0.9683 ± 0.1 | 1.117 ± 0.1 | 1.282 ± 0.1 | 1.474 ± 0.1 | 1.734 ± 0.1 | 1.987 ± 0.1 | 2.278 ± 0.1 | 2.568 ± 0.1 | 3.023 ± 0.1
318.15 K | 0.9063 ± 0.1 | 1.039 ± 0.1 | 1.185 ± 0.1 | 1.354 ± 0.1 | 1.58 ± 0.1 | 1.799 ± 0.1 | 2.049 ± 0.1 | 2.296 ± 0.1 | 2.681 ± 0.1

CCCCCCCC[P+](CC)(CC)CC.N#Cc1ccc[n-]1 + OCC(O)CO
viscosity [mPa·s], 100 kPa
Settings | 293.15 K | 298.15 K | 303.15 K | 313.15 K
x1 = 0.031 | 1533 ± 240 | 966 ± 150 | 621 ± 92 | 248 ± 36
x1 = 0.071 | 1550 ± 240 | 996 ± 150 | 617 ± 92 | 248 ± 36
x1 = 0.109 | 1457 ± 220 | 916 ± 140 | 581 ± 86 | 228 ± 33
x1 = 0.16 | 1330 ± 200 | 825 ± 120 | 540 ± 80 | 240 ± 35
x1 = 0.222 | 1133 ± 170 | 699 ± 100 | 428 ± 63 | 198 ± 29
x1 = 0.297 | 903 ± 140 | 584 ± 87 | 405 ± 59 | 187 ± 27
x1 = 0.393 | 672 ± 100 | 437 ± 65 | 289 ± 43 | 150 ± 22
x1 = 0.457 | 608 ± 91 | 408 ± 60 | 274 ± 40 | 138 ± 20
x1 = 0.532 | 545 ± 81 | 368 ± 54 | 251 ± 36 | 134 ± 19
x1 = 0.615 | 519 ± 77 | 357 ± 52 | 245 ± 35 | 129 ± 18
x1 = 0.742 | 434 ± 64 | 291 ± 42 | 197 ± 28 | 105 ± 15
x1 = 0.833 | 372 ± 54 | 252 ± 36 | 167 ± 24 | 89 ± 13

CCCCn1cc[n+](C)c1.COP(=O)([O-])OC + CCCCn1cc[n+](C)c1.O=S(=O)([N-]S(=O)(=O)C(F)(F)F)C(F)(F)F
Settings | viscosity [mPa·s]
298.15 K, 100 kPa, x2 = 0.25 | 432.5 ± 25
